{"source": "patent US12134620B2", "about": "(ARAXES PHARMA LLC, priority 2018, dated 2024)"}
{"molecular_target": "T1, KRAS G12C 1-169, his-tagged protein, GDP-loaded (Homo sapiens, UniProt P01116, G12C)", "T1 construct": "KRAS G12C 1-169, his-tagged protein, GDP-loaded; His tag", "assay": "Biochemical assay: covalent modification of KRAS G12C, analysed by mass spectrometry (RapidFire/TOF or Q-Exactive)", "assay_type": "binding", "details": "Modification activity, modification percentage from MS peak intensities", "method": "Test compounds are prepared as 10 mM stock solutions in DMSO (Fisher cat. #BP-231-100). KRAS G12C 1-169, his-tagged protein, GDP-loaded is diluted to 2 μM or 0.5 μM in buffer (20 mM Hepes, 150 mM NaCl, 1 mM MgCl2). Compounds are tested for activity as follows:\nCompounds are diluted to 50× final test concentration in DMSO in 96-well storage plates. Compound stock solutions are vortexed before use and observed carefully for any sign of precipitation. Dilutions are as follow: • For 32 μM final compound concentration, compounds are diluted to 1600 μM (3 μL 10 mM compound stock+15.75 μL DMSO and mixed well by pipetting. • For 8 μM final compound concentration, compounds are diluted to 400 μM (2 μL 10 mM compound stock+48 μL DMSO) and mixed well by pipetting. 49 μL of the stock protein solution is added to each well of a 96-well PCR plate (Fisher cat #1423027). 1 μl of the diluted 50× compounds are added to appropriate wells in the PCR plate using 12-channel pipettor. Reactions are mixed carefully and thoroughly by pipetting up/down with a 200 μL multi-channel pipettor. The plate is sealed well with aluminum plate seal, and protein and compound are allowed to react for a desired amount of time. 5 μL of 2% formic acid (Fisher cat #A117) in de-ionized H2O is then added to each well followed by mixing with a pipette to quench the reaction. The plate is then resealed with aluminum seal and stored frozen on dry ice until analyzed as described below.\nThe above described assays are analyzed by mass spectrometry according to one of the following two procedures:\nThe MS instrument is set to positive polarity, 2 GHz resolution, and low mass (1700) mode and allowed to equilibrate for 30 minutes. The instrument is then calibrated, switched to acquisition mode and the appropriate method loaded.\nAfter another 30 minute equilibration time, a blank batch (i.e., buffer) is run to ensure equipment is operating properly. The samples are thawed at 37° C. for 10 minutes, briefly centrifuged, and transfer to the bench top. Wells A1 and H12 are spiked with 1 μL 500 μM internal standard peptide, and the plates centrifuged at 2000×g for 5 minutes. The method is then run and masses of each individual well recorded.\nThe masses (for which integration data is desired) for each well are pasted into the platemap and exported from the analysis. Masses for the internal standards are exported as well. The data at 50 ppm is extracted for the +19 charge state, and identity of well A1 is assigned using the internal standard spike and integrated. Peak data is exported as a TOF list and the above steps are repeated individually, for the +20, +21, +22, +23, +24, and +25 charge states.\nThe masses and peak intensities of KRAS G12C protein species are measured using a Dionex RSLCnano system (Thermo Scientific) connected to a Q Exactive Plus mass spectrometer (Thermo Scientific).\n20 μL of sample is each loaded onto a Aeris™ 3.6 μm WIDEPORE C4 200 Å, LC Column 50×2.1 mm column maintained at 40° C. at a flow rate of 600 μL/min with 80% Solvent A (0.1% formic acid in H2O) and 20% Solvent B (0.1% formic acid in acetonitrile). The liquid chromatography conditions are 20% solvent B for 1 minute, 20% to 60% solvent B for 1.5 minutes, 60% to 90% solvent for 0.5 minute, 90% solvent B for 0.2 minute, 90% to 20% solvent B for 0.2 minute, and then equilibrated for 1.6 minute before the following sample injection. The flow rate is maintained at 600 μL/min throughout the sample analysis.\nThe mass spectrometer is operated in profile mode at a resolution of 17500, 5 microscans, using 50 msec max injection time and an AGC target of 1×10^6, and a full mass range from 800-1850 m/z is recorded. The intact protein mode is applied for optimal ion transfer and maximum sensitivity. The ionization method is electrospray ionization, which used a spray voltage of 4 kV, sheath gas flow set to 50 AU, auxiliary gas flow set to 10 AU and sweep gas flow set to 1 AU. […]"}
{"smiles": "C=CC(=O)N1CC2(CCN(c3nc(OCc4ccc(N5CCN(C)CC5)cn4)nc(-c4c(C)ccc5cnn(C)c45)c3C#N)C2)C1", "note": "[Compound I-186, 4-(2-acryloyl-2,6-diazaspiro[3.4]octan-6-yl)-6-(1,6-dimethyl-1H-indazol-7-yl)-2-((5-(4-methylpiperazin-1-yl)pyridin-2-yl)methoxy)pyrimidine-5-carbonitrile]", "Binding %": "+ (+ indicates binding activity greater than 0% and up to 50%)"}
{"smiles": "CC#CC(=O)N1CC2(CCN(c3nc(OC[C@@H]4CCCN4C)nc(-c4c(C)ccc5[nH]ncc45)c3C#N)C2)C1", "note": "[Compound I-104, 4-(2-(but-2-ynoyl)-2,6-diazaspiro[3.4]octan-6-yl)-6-(5-methyl-1H-indazol-4-yl)-2-(((S)-1-methylpyrrolidin-2-yl)methoxy)pyrimidine-5-carbontrile]", "Binding %": "+ (+ indicates binding activity greater than 0% and up to 50%)"}
{"smiles": "C=CC(=O)N1CC2(CCN(c3nc(OCc4ccccn4)nc(-c4c(C)ccc5cnn(C)c45)c3C#N)C2)C1", "note": "[Compound I-102, 4-(2-acryloyl-2,6-diazaspiro[3.4]octan-6-yl)-6-(1,6-dimethyl-1H-indazol-7-yl)-2-(pyridin-2-ylmethoxy)pyrimidine-5-carbonitrile]", "Binding %": "++ (++ indicates binding activity from 50 to 85%)"}
{"smiles": "C=CC(=O)N1CC2(CCN(c3nc(OC[C@@H]4CCCN4C)nc(-c4n[nH]c5ccccc45)c3C#N)C2)C1", "note": "[Compound I-90, (S)-4-(2-acryloyl-2,6-diazaspiro[3.4]octan-6-yl)-6-(1H-indazol-3-yl)-2-((1-methylpyrrolidin-2-yl)methoxy)pyrimidine-5-carbonitrile]", "Binding %": "+ (+ indicates binding activity greater than 0% and up to 50%)"}
{"smiles": "C=CC(=O)N1CC2(CCN(c3cnc(Oc4ccccc4)c(-c4c(C)ccc5cnn(C)c45)c3C#N)C2)C1", "note": "[Compound I-215, 5-(2-acryloyl-2,6-diazaspiro[3.4]octan-6-yl)-3-(1,6-dimethyl-1H-indazol-7-yl)-2-phenoxyisonicotinoni-trile]", "Binding %": "++ (++ indicates binding activity from 50 to 85%)"}
{"smiles": "C=CC(=O)N1CC2(CCN(c3nc(OC[C@@H]4CCCN4C)cc(-c4c(C)ccc5[nH]ncc45)c3C#N)C2)C1", "note": "[Compound I-185, 2-(2-acryloyl-2,6-diazaspiro[3.4]octan-6-yl)-4-(5-methyl-1H-indazol-4-yl)-6-(((S)-1-methylpyrrolidin-2-yl)methoxy)nicotino-nitrile]", "Binding %": "+++ (+++ indicates binding activity greater than 85%)"}
{"smiles": "C=CC(=O)N1CC2(CCN(c3nc(N4CCOCC4)nc(N4CC(O)Cc5ccccc54)c3C#N)C2)C1", "note": "(stereo not drawn) [Compound I-89, 4-(2-acryloyl-2,6-diazaspiro[3.4]octan-6-yl)-6-(3-hydroxy-3,4-dihydroquinolin-1(2H)-yl)-2-morpholinopyrimidine-5-carbonitrile]", "Binding %": "+ (+ indicates binding activity greater than 0% and up to 50%)"}
{"smiles": "C/C=C/C(=O)N1CC2(CCN(c3nc(OC[C@@H]4CCCN4C)nc(-c4c(C)ccc5[nH]ncc45)c3C#N)C2)C1", "note": "[Compound I-105, 4-(2-((E)-but-2-enoyl)-2,6-diazaspiro[3.4]octan-6-yl)-6-(5-methyl-1H-indazol-4-yl)-2-(((S)-1-methylpyrrolidin-2-yl)methoxy)pyrimidine-5-carbonitrile]", "Binding %": "+ (+ indicates binding activity greater than 0% and up to 50%)"}
{"smiles": "C=CC(=O)N1CC2(CCN(c3nc(OC[C@@H]4CCCN4C)nc(-c4cccc5c4OC(F)(F)O5)c3C#N)C2)C1", "note": "[Compound I-17, (S)-4-(2-acryloyl-2,6-diazaspiro[3.4]octan-6-yl)-6-(2,2-difluorobenzo[d][1,3]dioxol-4-yl)-2-((1-methylpyrrolidin-2-yl)methoxy)pyrimidine-5-carbonitrile]", "Binding %": "+ (+ indicates binding activity greater than 0% and up to 50%)"}
{"smiles": "C=CC(=O)N1CC2(CCN(c3nc(OC[C@@H]4CCCN4C)nc(-c4ccccc4-c4cn[nH]c4)c3C#N)C2)C1", "note": "[Compound I-107, (S)-4-(2-(1H-pyrazol-4-yl)phenyl)-6-(2-acryloyl-2,6-diazaspiro[3.4]octan-6-yl)-2-((1-methylpyrrolidin-2-yl)methoxy)pyrimidine-5-carbonitrile]", "Binding %": "+ (+ indicates binding activity greater than 0% and up to 50%)"}
{"smiles": "C=CC(=O)N1CC2(CCN(c3nc(N4CCOCC4)nc(-c4cccc5ccccc45)c3C#N)C2)C1", "note": "[Compound I-100, 4-(2-acryloyl-2,6-diazaspiro[3.4]octan-6-yl)-2-morpholino-6-(naphthalen-1-yl)pyrimidine-5-carbonitrile]", "Binding %": "+ (+ indicates binding activity greater than 0% and up to 50%)"}
{"smiles": "C=CC(=O)N1CC2(CCN(c3ncc(C#N)c(-c4c(C)ccc5[nH]ncc45)n3)C2)C1", "note": "[Compound I-145, 2-(2-acryloyl-2,6-diazaspiro[3.4]octan-6-yl)-4-(5-methyl-1H-indazol-4-yl)pyrimidine-5-carbonitrile]", "Binding %": "+ (+ indicates binding activity greater than 0% and up to 50%)"}
{"smiles": "C=CC(=O)N1CC2(CCN(c3nccc(-c4c(C)ccc5[nH]ncc45)n3)C2)C1", "note": "[Compound I-275, 1-(6-(4-(5-methyl-1H-indazol-4-yl)pyrimidin-2-yl)-2,6-diazaspiro[3.4]octan-2-yl)prop-2-en-1-one]", "Binding %": "+ (+ indicates binding activity greater than 0% and up to 50%)"}
{"smiles": "C=CC(=O)N1CC2(CCN(c3nc(N4CC5CN(C)CC5C4)nc(-c4c(C)ccc5[nH]ncc45)c3C#N)C2)C1", "note": "(stereo not drawn) [Compound I-39, 4-(2-acryloyl-2,6-diazaspiro[3.4]octan-6-yl)-6-(5-methyl-1H-indazol-4-yl)-2-(5-methylhexahydropyr-rolo[3,4-c]pyrrol-2(1H)-yl)pyrimidine-5-carbonitrile]", "Binding %": "+ (+ indicates binding activity greater than 0% and up to 50%)"}
{"smiles": "C=CC(=O)N1CC2(CCN(c3nc(OCc4cccc(OC)c4)nc(-c4c(C)ccc5[nH]ncc45)c3C#N)C2)C1", "note": "[Compound I-151, 4-(2-acryloyl-2,6-diazaspiro[3.4]octan-6-yl)-2-((3-methoxybenzyl)oxy)-6-(5-methyl-1H-indazol-4-yl)pyrimidine-5-carbonitrile]", "Binding %": "++ (++ indicates binding activity from 50 to 85%)"}
{"smiles": "C=CC(=O)N1CC2(CCN(c3nc(OCc4ccccn4)nc(-c4c(C)ccc5[nH]ncc45)n3)C2)C1", "note": "[Compound I-219, 1-(6-(4-(5-methyl-1H-indazol-4-yl)-6-(pyridin-2-ylmethoxy)-1,3,5-triazin-2-yl)-2,6-diazaspiro[3.4]octan-2-yl)prop-2-en-1-one]", "Binding %": "+ (+ indicates binding activity greater than 0% and up to 50%)"}
{"smiles": "C=CC(=O)N1CC2(CCN(c3nc(OCc4ncccn4)nc(-c4c(C)ccc5cnn(C)c45)c3C#N)C2)C1", "note": "[Compound I-168, 4-(2-acryloyl-2,6-diazaspiro[3.4]octan-6-yl)-6-(1,6-dimethyl-1H-indazol-7-yl)-2-(pyrimidin-2-ylmethoxy)pyrimidine-5-carbonitrile]", "Binding %": "+ (+ indicates binding activity greater than 0% and up to 50%)"}
{"smiles": "C=CC(=O)N1CC2(CCN(c3nc(N4CCC(N5CCN(C6CC6)CC5)CC4)nc(-c4c(C)ccc5[nH]ncc45)c3C#N)C2)C1", "note": "[Compound I-217, 4-(2-acryloyl-2,6-diazaspiro[3.4]octan-6-yl)-2-(4-(4-cyclopropylpiperazin-1-yl)piperidin-1-yl)-6-(5-methyl-1H-indazol-4-yl)pyrimidine-5-carbonitrile]", "Binding %": "++ (++ indicates binding activity from 50 to 85%)"}
